Experimental data published in patent US12296053B2, “Nanomaterials comprising triols” (Beam Therapeutics Inc., priority 2022, dated 2025).

Tests used:
ALAS1 target site = experiment: Base editing in liver by LNP-delivered ABE mRNA and sgRNA, targeted deep sequencing; assay type: in vivo; conditions: LNP with the ionizable lipid, ABE mRNA + sgRNA targeting ALAS1 1:1; tail vein injection, Balb/c mice; 0.05 mg/kg; tissues four to six days post-dose
Protocol: (§1) Lipid nanoparticle components were dissolved in 100% ethanol at specified lipid component molar ratios. mRNA encoding an adenine base editor and a chemically-modified sgRNA was dissolved at a mass ratio of 1:1 in 50 mM citrate, pH 4.0, resulting in a concentration of NA cargo of approximately 0.1 mg/mL.
(§2) LNP preparations were formulated with molar ratios of 47.5% Ionizable Lipid: 40% Cholesterol: 2.5% PEG2000-DMG: 10% DSPC total lipid to NA molar ratio of 6 to 12.
(§3) LNP preparations were formed by microfluidic mixing of the lipid and NA solutions using Precision Nanosystems NanoAssemblr Ignite series Instruments, according to the manufacturer's protocol.
(§4) A 3:1 ratio of aqueous to organic solvent was maintained during mixing using differential flow rates. After mixing, LNP preparations were collected and diluted in TBS (approximately 7:1 v/v), and further buffer exchange was conducted using dialysis in TBS at 4° C. for 8 to 24 hours against a 20 kDa filter. After this initial dialysis, each individual LNP preparation was characterized via dynamic light scattering (DLS) to measure size and polydispersity. pKa of a subpopulation of LNP preparations was measured via TNS assay.
Male Balb/C mice aged approximately 8-12 weeks were used in the experiments described herein. […]
Age-matched mice were also used to administer vehicle (1×TBS) via tail vein injection as a control. Four to six days post-dose, tissues including liver, spleen, and bone marrow were collected. Base editing was determined by performing targeted deep sequencing analysis at the ALAS1 target site using extracted genomic DNA. Genomic DNA was isolated and fragmented and adapter-ligated using the Nextera DNA Flex Library Prep Kit (Illumina) using the 96-well plate Nextera indexing primers (Illumina), according to the manufacturer's instructions. Library size and concentration was confirmed by Fragment Analyzer (Agilent) and analyzed for whole genome sequencing using an Illumina HiSeq.

[1] = Encapsulation efficiency of LNP preparations (Ribogreen assay; Qubit, unlysed and lysed LNPs); assay type: physicochemical; conditions: LNP preparation with the ionizable lipid, ABE mRNA:sgRNA 1:1, except 7-1, 7-2, 7-6, 7-10 (unlysed and lysed LNPs, Qubit)
Protocol: as §1, §2, §3
With the exception of LNPs comprising ionizable lipids 7-1, 7-2, 7-6, and 7-10, RNA concentration and encapsulation efficiency were determined by Ribogreen assay (BioTek Synergy LX plate reader). For LNPs comprising ionizable lipids 7-1, 7-2, 7-6, and 7-10, RNA concentration was determined by Qubit microRNA kit (for siRNA) or HS RNA kit (for mRNA) per manufacturer's instructions, and encapsulation efficiency was determined by measuring unlysed and lysed LNPs.

[2] = LNP hydrodynamic diameter and polydispersity index by dynamic light scattering (DLS); assay type: physicochemical; conditions: for Diameter (nm): hydrodynamic diameter of the LNP preparation with the ionizable lipid; for PDI: polydispersity index of the LNP preparation with the ionizable lipid
Protocol: as §4
DLS-LNP preparation hydrodynamic diameter and polydispersity index (PDI) was measured using high throughput dynamic light scattering (DLS) (DynaPro plate reader II, Wyatt). LNP preparations were diluted 1×PBS to an appropriate concentration and analyzed.

Structure (SMILES)	Encapsulation Efficiency (%) [1] [%]	Diameter (nm) [2] [nm]	PDI [2]	% Editing in Liver (0.05 mpk) (ALAS1 target site) [%]
C=CCCCCCC(CCCCCC=C)OC(=O)CCCCCC(=O)OCC(COC(=O)CCC(CCCCC)OC(=O)NCCN1CCCC1)COC(=O)CCC(OCCCC/C=C\CC)OCCCC/C=C\CC (centres unmarked) [Compound 7-33, 1-(3-((4,4-bis(((Z)-oct-5-en-1-yl)oxy)butanoyl)oxy)-2-(((4-(((2-(pyrrolidin-1-yl)ethyl)carbamoyl)oxy)nonanoyl)oxy)methyl)propyl) 7-(pentadeca-1,14-dien-8-yl) heptanedioate]	96.7	64.85	0.11	6.5
C=CCCCCCC(CCCCCC=C)OC(=O)CCCCCC(=O)OCC(COC(=O)CCC(CCCCCC)OC(=O)NCCN1CCCC1)COC(=O)CCC(OCCCC/C=C\CC)OCCCC/C=C\CC (centres unmarked) [Compound 7-34, 1-(3-((4,4-bis(((Z)-oct-5-en-1-yl)oxy)butanoyl)oxy)-2-(((4-(((2-(pyrrolidin-1-yl)ethyl)carbamoyl)oxy)decanoyl)oxy)methyl)propyl) 7-(pentadeca-1,14-dien-8-yl) heptanedioate]	98.1	54.35	0.05	1.6
CC/C=C\CCCCOC(CCC(=O)OCC(COC(=O)CCCCCC(=O)OC(CCCCCCC)CCCCCCC)COC(=O)CCC(CCCCC)OC(=O)NCCN1CCCC1)OCCCC/C=C\CC (centres unmarked) [Compound 7-35, 1-(3-((4,4-bis(((Z)-oct-5-en-1-yl)oxy)butanoyl)oxy)-2-(((4-(((2-(pyrrolidin-1-yl)ethyl)carbamoyl)oxy)nonanoyl)oxy)methyl)propyl) 7-(pentadecan-8-yl) heptanedioate]	96.2	64.25	0.12	3.1
CC/C=C\CCCCOC(CCC(=O)OCC(COC(=O)CCCCCC(=O)OC(CCCCCCC)CCCCCCC)COC(=O)CCC(CCCCCC)OC(=O)NCCN1CCCC1)OCCCC/C=C\CC (centres unmarked) [Compound 7-36, 1-(3-((4,4-bis(((Z)-oct-5-en-1-yl)oxy)butanoyl)oxy)-2-(((4-(((2-(pyrrolidin-1-yl)ethyl)carbamoyl)oxy)decanoyl)oxy)methyl)propyl) 7-(pentadecan-8-yl) heptanedioate]	98.2	53.80	0.04	1.5
CC/C=C\CCCCOC(CCC(=O)OCC(COC(=O)CCC(CCCCC)OC(=O)NCCN1CCCC1)COC(=O)CCC(OCCCC/C=C\CC)OCCCC/C=C\CC)OCCCC/C=C\CC (centres unmarked) [Compound 7-37, 2-(((4-(((2-(pyrrolidin-1-yl)ethyl)carbamoyl)oxy)nonanoyl)oxy)methyl)propane-1,3-diyl bis(4,4-bis(((Z)-oct-5-en-1-yl)oxy)butanoate)]	94.7	66.20	0.12	12.0
CC/C=C\CCCCOC(CCC(=O)OCC(COC(=O)CCC(CCCCCC)OC(=O)NCCN1CCCC1)COC(=O)CCC(OCCCC/C=C\CC)OCCCC/C=C\CC)OCCCC/C=C\CC (centres unmarked) [Compound 7-38, 2-(((4-(((2-(pyrrolidin-1-yl)ethyl)carbamoyl)oxy)decanoyl)oxy)methyl)propane-1,3-diyl bis(4,4-bis(((Z)-oct-5-en-1-yl)oxy)butanoate)]	99.1	60.25	0.06	9.4
C=CCCCCCC(CCCCCC=C)COC(=O)CCCCC(=O)OCC(COC(=O)CCC(CCCCCC)OC(=O)NCCN1CCCC1)COC(=O)CCC(OCCCC/C=C\CC)OCCCC/C=C\CC (centres unmarked) [Compound 7-39, 3-((4,4-bis(((Z)-oct-5-en-1-yl)oxy)butanoyl)oxy)-2-(((4-(((2-(pyrrolidin-1-yl)ethyl)carbamoyl)oxy)decanoyl)oxy)methyl)propyl (2-(hept-6-en-1-yl)non-8-en-1-yl) adipate]	97.4	53.4	0.08	1.4

Further lines, with some results ahead:

Encapsulation Efficiency (%) [1] [%]	Diameter (nm) [2] [nm]	PDI [2]	Structure (SMILES)	% Editing in Liver (0.05 mpk) (ALAS1 target site) [%]
96.8	54.1	0.09	CC/C=C\CCCCOC(CCC(=O)OCC(COC(=O)CCCCCCOC(=O)C(CCCC)CCCCCC)COC(=O)CCC(CCCCCC)OC(=O)NCCN(C)C)OCCCC/C=C\CC (centres unmarked) [Compound 7-40, 3-((4,4-bis(((Z)-oct-5-en-1-yl)oxy)butanoyl)oxy)-2-(((7-((2-butyloctanoyl)oxy)heptanoyl)oxy)methyl)propyl 4-(((2-(dimethylamino)ethyl)carbamoyl)oxy)decanoate]	1.9
95.9	59.05	0.06	CC/C=C\CCCCOC(CCC(=O)OCC(COC(=O)CCCCCCOC(=O)C(CCCC)CCCCCC)COC(=O)CCC(CCCCCC)OC(=O)NCCN(CC)CC)OCCCC/C=C\CC (centres unmarked) [Compound 7-41, 3-((4,4-bis(((Z)-oct-5-en-1-yl)oxy)butanoyl)oxy)-2-(((7-((2-butyloctanoyl)oxy)heptanoyl)oxy)methyl)propyl 4-(((2-(diethylamino)ethyl)carbamoyl)oxy)decanoate]	4.5
97.2	74	0.13	CC/C=C\CCCCOC(CCC(=O)OCC(COC(=O)CCCCCCOC(=O)C(CCCC)CCCCCC)COC(=O)CCC(CCCCCC)OC(=O)NCCCN(CC)CC)OCCCC/C=C\CC (centres unmarked) [Compound 7-42, 3-((4,4-bis(((Z)-oct-5-en-1-yl)oxy)butanoyl)oxy)-2-(((7-((2-butyloctanoyl)oxy)heptanoyl)oxy)methyl)propyl 4-(((3-(diethylamino)propyl)carbamoyl)oxy)decanoate]	7.3
89.2	68.8	0.08	CC/C=C\CCCCOC(CCC(=O)OCC(COC(=O)CCCCCCOC(=O)C(CCCC)CCCCCC)COC(=O)CCC(CCCCCC)OC(=O)NCCN1CCCCC1)OCCCC/C=C\CC (centres unmarked) [Compound 7-44, 3-((4,4-bis(((Z)-oct-5-en-1-yl)oxy)butanoyl)oxy)-2-(((7-((2-butyloctanoyl)oxy)heptanoyl)oxy)methyl)propyl 4-(((2-(piperidin-1-yl)ethyl)carbamoyl)oxy)decanoate]	0.1
93.4	81.8	0.13	CC/C=C\CCCCOC(CCC(=O)OCC(COC(=O)CCCCCCOC(=O)C(CCCC)CCCCCC)COC(=O)CCC(CCCCCC)OC(=O)OCCCN(CC)CC)OCCCC/C=C\CC (centres unmarked) [Compound 7-45, 3-((4,4-bis(((Z)-oct-5-en-1-yl)oxy)butanoyl)oxy)-2-(((7-((2-butyloctanoyl)oxy)heptanoyl)oxy)methyl)propyl 4-(((3-(diethylamino)propoxy)carbonyl)oxy)decanoate]	3.4
93.7	82.35	0.13	CC/C=C\CCCCOC(CCC(=O)OCC(COC(=O)CCCCCCOC(=O)C(CCCC)CCCCCC)COC(=O)CCC(CCCCCC)OC(=O)OCC1CCCN(CC)C1)OCCCC/C=C\CC (centres unmarked) [Compound 7-46, 3-((4,4-bis(((Z)-oct-5-en-1-yl)oxy)butanoyl)oxy)-2-(((7-((2-butyloctanoyl)oxy)heptanoyl)oxy)methyl)propyl 4-((((1-ethylpiperidin-3-yl)methoxy)carbonyl)oxy)decanoate]	1.1
96.3	57	0.06	CC/C=C\CCCCOC(CCC(=O)OCC(COC(=O)CCCCCCOC(=O)C(CCCC)CCCCCC)COC(=O)CCC(CCCCCC)OC(=O)CCCN1CCCC1)OCCCC/C=C\CC (centres unmarked) [Compound 7-49, 3-((4,4-bis(((Z)-oct-5-en-1-yl)oxy)butanoyl)oxy)-2-(((7-((2-butyloctanoyl)oxy)heptanoyl)oxy)methyl)propyl 4-((4-(pyrrolidin-1-yl)butanoyl)oxy)decanoate]	6.6
